Source: EP2829880A1, “Method for identifying modulators of BCRP/ABCG2-mediated ATP release and use of said modulators for treating diseases” (Energeia Biosciences, priority 2013, dated 2015)
Like-named read-outs stand apart in the source and are kept apart here.

Legend:
BCRP (ABCG2) [1] = molecular target: T1, BCRP (ABCG2) (Homo sapiens, UniProt Q9UNQ0); assay: in vitro
T1 sequence (Q9UNQ0 1-655): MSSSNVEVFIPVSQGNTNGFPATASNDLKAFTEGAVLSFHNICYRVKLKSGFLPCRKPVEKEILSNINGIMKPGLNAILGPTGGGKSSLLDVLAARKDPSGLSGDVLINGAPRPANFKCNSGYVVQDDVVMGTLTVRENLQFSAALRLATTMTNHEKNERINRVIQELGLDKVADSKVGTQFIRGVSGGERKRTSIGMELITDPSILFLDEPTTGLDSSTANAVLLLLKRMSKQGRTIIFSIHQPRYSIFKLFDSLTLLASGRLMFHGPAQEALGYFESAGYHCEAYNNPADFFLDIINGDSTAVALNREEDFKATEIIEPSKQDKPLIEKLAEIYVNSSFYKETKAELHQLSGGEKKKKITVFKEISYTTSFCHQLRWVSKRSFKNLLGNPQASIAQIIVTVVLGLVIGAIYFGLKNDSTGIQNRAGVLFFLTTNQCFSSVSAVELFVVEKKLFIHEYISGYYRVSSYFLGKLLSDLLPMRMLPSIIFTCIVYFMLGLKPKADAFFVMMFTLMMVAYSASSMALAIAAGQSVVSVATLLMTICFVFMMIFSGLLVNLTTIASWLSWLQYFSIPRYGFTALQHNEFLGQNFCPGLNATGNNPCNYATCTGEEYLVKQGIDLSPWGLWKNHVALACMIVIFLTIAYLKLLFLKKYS
Description: The uptake of ATP is plotted in pmol/mg protein/min. […] The uptake of a [3H] or [32P]-radiolabelled ATP by an ABC drug transporter selected from the group consisting of BCRP (ABCG2) or MRP1-6 (ABCC1-6) into membrane vesicles (stably overexpressing one type of ABC transporter) under conditions of low pH (compared with physiological pH) can be studied by radiochemical analysis. Subsequently, the effect of a test compound on the ABC drug transporter-mediated ATP release can be studied at different pH values (not shown in figure). • Figure 6: Schematic representation of the ABC drug transporter mediated-ATP-release assay. The transport of a [3H] or [32P]-radiolabelled ATP by an ABC drug transporter selected from the group consisting of BCRP (ABCG2) or MRP1-6 (ABCC1-6) into MDCKII cells (stably overexpressing one type of ABC drug transporter) under conditions of low extracellular pH (compared with physiological pH) and/or hypoxic conditions (0-1% O2, 5% CO2, 94-95% N2) (compared with normoxic conditions (20% O2, 5% CO2, 75% N2)) can be studied by radiochemical analysis or HPLC. Subsequently, the effect of a test compound on the ABC drug transporter-mediated ATP release can be studied at different pH values (not shown in figure). • Figure 7: Schematic representation of ABCG2 expression in normal tissues. Arrows indicate direction of substrate transport. In the brain and testis, ABCG2 is expressed mainly in the blood vessel endothelium, forming part of the blood-brain and blood-testis barrier, respectively. (from: Robey et al. Curr Pharm Biotechnol 2011) • Figure 8: Table 1: Cellular localization and function of ion exchange pumps • Figure 9: Table 2: Protein and/or gene expression of MRP/Mrp isoforms in various brain compartments in human and in mouse and in rat. Table adapted from Dallas et al. (45). • Figure 10: Chemical structure of Danshen compounds • Fig. 10 A: Chemical structures of compounds from Danshen (Salvia miltiorrhiza) • Fig. 10 B: Chemical structures of main lipophilic compounds from Danshen • Fig. 10 C: Chemical structure of main hydrophilic compounds from Danshen • Fig. 10 D: Chemical structure of Magnesium lithospermate B • Fig. 10 E: Chemical structure of salvianolic acid B • Fig. 10 F: Chemical structure of Indirubin
Membrane vesicles from (ABC transporter-transfected) Sf9 cells were prepared in isotonic vesicle buffer consisting of 50 mM Tris and 250 mM sucrose adjusted to pH 7.4. Vesicular transport assays were performed in vesicular transport assay buffer (50 mM HEPES/KOH, 100 mM KCI) as described before (Breedveld et al., 2004, 2007). The vesicular transport assay buffer and the solutions of all other reagents used in transport assays were adjusted to the appropriate pH (pH 6 or pH 7.4) by adding aliquots of HCl (37% w/w) for low pH. The pH of the final solution was controlled (Breedveld et al., 2007). […]
Curve fitting was performed by nonlinear regression analysis using the software package Graphpad Prism version 4 (GraphPad Software, San Diego, USA). Data from concentration-dependent transport assays were analyzed according to the classical Michaelis-Menten model (eq. 1) (Rowland and Tozer, 1995): v = (Vmax x [S])/(Km + [S]) [formula] where v is the rate of transport, Vmax is the maximum velocity, S is the substrate concentration, and Km is the substrate concentration at half-maximum velocity.

BCRP (ABCG2) [2] = molecular target: T1, BCRP (ABCG2); design: made in house; host or cells: Sf9 insect cells (membrane vesicles); conditions: 1 µM MTX; cited from earlier work
[3] = cited from earlier work
[4] = substrate: Nc1ncnc2c1ncn2[C@@H]1O[C@H](COP(=O)(O)OP(=O)(O)OP(=O)(O)O)[C@@H](O)[C@H]1O; assay: cells, lysate or membranes named; conditions: other: pH 6, saturable transport, 37°C, 5 min (Fig. 2A)

CN(Cc1cnc2nc(N)nc(N)c2n1)c1ccc(C(=O)N[C@@H](CCC(=O)O)C(=O)O)cc1 [MTX, methotrexate]
inhibition at 100 µM (BCRP (ABCG2) [1]; pH 6): ~46%
ATP-dependent transport by BCRP at pH 5.1 relative to physiological pH (BCRP (ABCG2) [2]): 7 fold

Nc1ncnc2c1ncn2[C@@H]1O[C@H](COP(=O)(O)OP(=O)(O)OP(=O)(O)O)[C@@H](O)[C@H]1O [[^3H]ATP, adenosine 5'-triphosphate]
transport by BCRP at pH 6 relative to physiological pH (BCRP (ABCG2) [1]; 0.5 min, 100 µM, pH 6): 3.8 fold

Nc1ncnc2c1ncn2[C@@H]1O[C@H](COP(=O)(O)OP(=O)(O)OP(=O)(O)O)[C@@H](O)[C@H]1O [[^32P]-γ-labeled-ATP, adenosine 5'-triphosphate]
net uptake into BCRP membrane vesicles (BCRP (ABCG2) [1]; 0.5 min, 100 µM, pH 6): 80 pmol/mg protein
net uptake into BCRP membrane vesicles (BCRP (ABCG2) [1]; 10 min, 100 µM, pH 6): 194 pmol/mg protein

COc1ccnc(C[S+]([O-])c2nc3ccc(OC(F)F)cc3[nH]2)c1OC (stereo not shown) [pantoprazole]
IC50 (BCRP (ABCG2) [1]): > 1000 µM

CCN(CC)CCNC(=O)c1c(C)[nH]c(/C=C2\C(=O)Nc3ccc(F)cc32)c1C [sunitinib]
increase of brain accumulation ([3]; Abcb1a/b(-/-) mice): 2.3 fold
increase of brain accumulation ([3]; Abcb1a/b/Abcg2(-/-) mice): 23 fold

B1: BCRP (ABCG2) (Homo sapiens) (protein)
chain: T1 sequence (Q9UNQ0 1-655)
Km [4]: 2000 µM
Vmax [4]: 1.5 nmoles/mg protein/min
